Columns and labels:
CYP2C9 = target: T1, CYP2C9 (Homo sapiens, UniProt P11712); assay: CYP inhibition in human liver microsome, CYP2C9; assay type: in vitro ADME
T1 construct: from tissue; host or cells: human liver microsomes
Procedure: CYP inhibition: Human liver microsome (0.1–0.5 mg/mL for various CYPs) and appropriate probe substrates (2.5–20 µM) were incubated in potassium phosphate buffer with or without JBI-589 for 5 min at 37 °C. The reaction was initiated by addition of NADPH (1 mM), incubated at 37 °C for 10 min and quenched (0.5% Formic acid in internal standard (IS) containing ACN). Samples were then centrifuged and taken for LC–MS/MS analysis. Percent change in metabolite formation for each substrate under above conditions using formula: Percent inhibition = [1 − (test area ratio/control area ratio)] *100.

human recombinant PAD2 = target: T2, human recombinant PAD2 (Homo sapiens, UniProt Q9Y2J8); assay: PAD2 selectivity biochemical assay measuring ammonia release; settings: 10 semi-log concentrations, highest concentration tested 30 µM
T2 construct: purchased Cayman Chemicals 10785

[1] = tested on: histone H3 citrullination in human neutrophils; assay: Citrullination assay in human neutrophils (citrullinated H3 ELISA); assay type: cell-based; settings: Neutrophil
From the text: All blood samples from healthy donors who participated in this study were obtained after informed consent in accordance with relevant guidelines and regulations given by the ACE Independent ethics committee for Jubilant Biosys Ltd and Office of Clinical Investigations at Boston Children’s Hospital. The ACE Independent ethics committee, Bangalore, approved the use of human whole blood/PBMC/Enriched Subset in Jubilant Biosys Ltd investigations, Drug Controller General of India (DCGI) Reg No. ECR/141/Indt/KA/2013. Briefly, 10 mL K2EDTA vacutainers were used to collect fresh blood from healthy donors (BD vacutainer, Catalog No: BD 367525). A total of 50 ml of blood was taken from a single, healthy human donor. Neutrophils were isolated from human blood using the EasySep Direct Human Neutrophil Isolation Kit, according to the manufacturer's instructions (Stem Cell Technology, Catalog No: 19666). […]
Citrullinated H3 Enzyme linked immunosorbent Assay (ELISA) was performed as per manufacturer’s instructions (Cayman chemicals, Catalog No: 501620). Neutrophils obtained as mentioned above were counted and cell suspension was prepared in complete RPMI media. […] IC50 values were determined by sigmoidal dose–response curve (variable slope) in Graph Pad Prism 5 software.

Mice PK study = assay type: in vivo, Balb/c mice
From the text: Institutional Animal Ethical Committee (IAEC) of Jubilant Biosys Ltd (IAEC/JDC/2019/188R (for Mice) nominated by CPCSEA (Committee for the Purpose of Control and Supervision of Experiments on Animals) approved the mice pharmacokinetic experiments. Male Balb/c mice (~ 6–8 weeks old with body weight range of 22–25 g) were procured from Vivo Biotech, Hyderabad, India. Rodent feed (manufactured by Altromin Spezialfutter GmbH & Co. KG., ImSeelenkamp20, D-32791 Lage), and water was provided ad libitum. Intravenous (IV) and oral (PO) pharmacokinetics studies were done at doses of 2 mg/Kg and 10 mg/Kg, respectively at a dose volume of 10 mL/Kg. Sparse sampling was done with three mice at each time point. Blood (~ 100 µL) was collected from retro-orbital plexus at 0.12, 0.25, 0.5, 1, 2, 4, 8 and 24 h for IV and 0.25, 0.5, 1, 2, 4, 8, 10 and 24 h for PO route, in tubes containing K2 and EDTA as anticoagulant. It was centrifuged for 5 min at 10,000 rpm in a refrigerated centrifuge (Biofuge, Heraeus, Germany) maintained at 4 °C for plasma separation. For oral dosing of JBI-589 suspension formulation was prepared using 0.5% Tween-80 and 0.5% methyl cellulose (0.5% in water), while for IV dosing 5% DMSO, 5% Solutol:ethanol (1:1, v/v) and 90% normal saline was used.

[2] = Microsomal stability, DLM; assay type: in vitro ADME, dog; settings: 1 µM, liver microsomes 0.5 mg/mL; one range given for HLM/MLM/DLM/RLM
Procedure: Microsomal stability: Liver microsomes (0.5 mg/mL) from different species were incubated with JBI-589 (1 µM) with or without NADPH (1 mM) at 37 °C for 30 min in potassium phosphate buffer (pH 7.4) and then reaction was stopped with quenching solution (0.5% Formic acid in internal standard (IS) containing ACN). Resulting samples were centrifuged and supernatant was taken for LC–MS/MS analysis. Percent metabolism was calculated as follows: % Metabolized: [1 − (test area ratio/control area ratio)] *100.

[3] = male, Balb/c, mouse, plasma, 2 mg/kg, IV
[4] = male, Balb/c, mouse, plasma, 10 mg/kg, PO

T1 sequence (P11712 whole entry): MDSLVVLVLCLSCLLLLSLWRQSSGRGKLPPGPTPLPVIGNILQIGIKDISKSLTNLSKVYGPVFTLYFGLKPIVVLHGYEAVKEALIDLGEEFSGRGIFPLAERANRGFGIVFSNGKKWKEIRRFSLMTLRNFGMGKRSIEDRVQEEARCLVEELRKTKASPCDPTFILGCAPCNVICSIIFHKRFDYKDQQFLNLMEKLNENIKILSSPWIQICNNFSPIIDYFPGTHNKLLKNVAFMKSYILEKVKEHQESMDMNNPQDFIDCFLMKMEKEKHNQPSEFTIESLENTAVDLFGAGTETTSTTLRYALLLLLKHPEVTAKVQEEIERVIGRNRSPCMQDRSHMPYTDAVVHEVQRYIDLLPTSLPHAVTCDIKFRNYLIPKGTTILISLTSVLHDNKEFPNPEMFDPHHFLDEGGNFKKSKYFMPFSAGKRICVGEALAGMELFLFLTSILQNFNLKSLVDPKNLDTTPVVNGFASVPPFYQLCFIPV
T2 sequence (Q9Y2J8 whole entry): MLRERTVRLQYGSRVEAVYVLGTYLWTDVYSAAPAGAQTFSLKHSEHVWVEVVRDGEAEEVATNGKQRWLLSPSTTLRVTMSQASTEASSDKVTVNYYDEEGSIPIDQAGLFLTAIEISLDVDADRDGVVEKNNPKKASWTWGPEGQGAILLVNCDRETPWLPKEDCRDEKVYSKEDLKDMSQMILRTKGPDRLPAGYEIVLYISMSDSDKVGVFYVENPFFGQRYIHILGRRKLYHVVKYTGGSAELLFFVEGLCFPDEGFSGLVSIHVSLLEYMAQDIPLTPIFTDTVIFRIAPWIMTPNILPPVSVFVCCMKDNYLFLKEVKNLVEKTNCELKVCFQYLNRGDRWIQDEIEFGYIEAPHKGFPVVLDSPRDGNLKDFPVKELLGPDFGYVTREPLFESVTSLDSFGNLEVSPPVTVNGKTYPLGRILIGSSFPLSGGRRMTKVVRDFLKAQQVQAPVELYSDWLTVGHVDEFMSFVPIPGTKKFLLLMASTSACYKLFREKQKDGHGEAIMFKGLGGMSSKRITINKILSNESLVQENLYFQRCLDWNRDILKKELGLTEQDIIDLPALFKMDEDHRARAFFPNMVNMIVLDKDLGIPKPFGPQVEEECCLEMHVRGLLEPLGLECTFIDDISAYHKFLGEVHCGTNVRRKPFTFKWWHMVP

**Q.** For `Cc1c(-c2cc3ccccc3n2Cc2ccc(F)cc2)nc2cc(C(=O)N3CCC[C@@H](N)C3)ccn12` [JBI-589, (R)-(3-aminopiperidin-1-yl)(2-(1-(4-fluorobenzyl)-1H-indol-2-yl)-3-methylimidazo[1,2-a]pyridin-7-yl)methanone], which inhibition at 10 min, 10 µM (CYP2C9; human liver microsomes, 10 µM, human liver microsome, read-out: CYP2C9 inhibition (% inh @10 µM)) is on record?
**A.** The inhibition at 10 min, 10 µM was less than 50%.

**Q.** And the IC50 (CYP2C9; predicted from % inhibition, text says major CYPs tested)?
**A.** The IC50 was greater than 10000 nM.

**Q.** And the “inhibitory activity against PAD2” value (human recombinant PAD2)?
**A.** The value was “did not have any inhibitory activity”.

**Q.** And the IC50 ([1]; Fig. 1c, human neutrophils, calcium ionophore, x axis μM)?
**A.** The IC50 was 0.146 µM.

**Q.** And the EC50 ([1]; human neutrophils induced by 25 µM calcium ionophore, ELISA, read-out: EC50, inhibition of histone H3 citrullination)?
**A.** The EC50 was 146 nM.

**Q.** And the t1/2 (Mice PK study; 10 mg/kg, PO)?
**A.** The t1/2 was 6.3 h.

**Q.** What about the AUC(0-inf) (Mice PK study; [3]) of the same compound?
**A.** Its AUC(0-inf) is 4380 ng·h/mL.

**Q.** And the AUC(0-t) (Mice PK study; [3])?
**A.** The AUC(0-t) was 3960 ng·h/mL.

**Q.** And the C0 (Mice PK study; [3])?
**A.** The C0 was 968 ng/mL.

**Q.** What about the Cmax (Mice PK study; [3]) of the same compound?
**A.** The Cmax was 828 ng/mL.

**Q.** And the Vd (Mice PK study; [3])?
**A.** Its Vd is 5.24 L/kg.

**Q.** And the clearance (Mice PK study; [3])?
**A.** The clearance was 7.61 mL/min/kg.

**Q.** And the half-life (Mice PK study; [3])?
**A.** The half-life was 8 h.

**Q.** And the AUC(0-inf) (Mice PK study; [4])?
**A.** The AUC(0-inf) was 13500 ng·h/mL.

**Q.** And the AUC(0-t) (Mice PK study; [4])?
**A.** The AUC(0-t) was 12500 ng·h/mL.

**Q.** And the Cmax (Mice PK study; [4])?
**A.** Its Cmax is 874 ng/mL.

**Q.** And the bioavailability (Mice PK study; [4])?
**A.** Its bioavailability is 63%.

**Q.** And the “DLM % metabolized @ 30 min” value [2]?
**A.** The value was 25-50%.

From publication PMC9950073, “Alleviation of arthritis through prevention of neutrophil extracellular traps by an orally available inhibitor of protein arginine deiminase 4” (Scientific Reports, 2023)
